As usually defined, the GI50 is the concentration giving 50% growth inhibition. A higher GI50 goes with lower sensitivity of the cells. In general, IC50 refers to the midpoint of a concentration-inhibition curve.

Results on 23 compounds are retold here after US10654818B2, “Furane derivatives as inhibitors of ATAD2” (BAYER PHARMA AKTIENGESELLSCHAFT, priority 2015, dated 2020).

The test system of one experiment is NCl-H526 lung cancer. Kind of experiment: Cell proliferation assay (alamarBlue), NCl-H526. It counts as cell-based. The note with it: GI50 = half-maximal growth inhibition. As for the experimental part: (§1) The effect of ATAD2 inhibitory compounds on cancer cell proliferation might be measured as below. For example; MCF7 breast cancer cells might be seeded into 96-well microtiter plates at 2000 cells/well in 90 μl cell culture media (RPMI 1640, 10% FCS, 2 mM L-Glutamine, 10 μg/ml human Insulin, […]) and incubated for 24 h at 37° C. and 5% CO2. Note, the culturing conditions might vary from cell line to cell line depending on their standard culturing conditions. Compounds might be then delivered to the microtiter assay plates and, following a 72 h long incubation period at 37° C. and 5% CO2, the viability of the cells might be measured with addition of alamarBlue® (Invitrogen) to the medium in Victor X3 Multilabel Plate Reader (Perkin Elmer).
(§2) GI50 means half-maximal growth inhibition.
For orientation: Alamar Blue is a resazurin reagent that responds to reducing activity.

In the next experiment the test system is MCF7 breast cancer cells. Kind of experiment: Cell proliferation assay (alamarBlue), MCF7. It counts as cell-based. The note with it: Homo sapiens, 72 h incubation, GI50 = half-maximal growth inhibition. The protocol:
as §1, §2

In experiment [1] the target is T1, recombinant, N-terminally GST-tagged ATAD2 bromodomain amino acids 981-1108 (Homo sapiens, UniProt Q6PL18).
T1 construct: ATAD2 bromodomain amino acids 981-1108; made in house; host or cells: E. coli
T1 sequence (Q6PL18 981-1108): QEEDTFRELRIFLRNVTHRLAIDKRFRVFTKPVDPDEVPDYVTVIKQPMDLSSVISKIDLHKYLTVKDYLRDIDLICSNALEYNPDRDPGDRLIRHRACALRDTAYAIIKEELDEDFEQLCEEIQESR
Put plainly: TR-FRET assay: disruption of the interaction between ATAD2 and acetylated Histone H4 (Ac-H4) peptide. It counts as binding. The note with it: inhibition of ATAD2/Ac-H4 complex formation; 10 nM ATAD2, 50 nM Ac-H4 peptide. The method in brief:
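10 nM protein (final) pre-incubated 10 min at 22 °C with compound (0.1 nM-20 μM, 11 points, duplicate), then 50 nM biotinylated Ac-H4 peptide plus anti-GST-XL665/streptavidin-Eu added for 1 h at 22 °C in HEPES pH 7.5 buffer. 665/622 nm emission ratio read; IC50 from 4-parameter fit of normalized inhibition.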
(In TR-FRET formats the signal depends on donor and acceptor labels being close together.)

`Cc1ccc([C@@H](C)NCc2ccc(-c3ccc(Cl)c(C(=O)N[C@@H](C)Cc4ccc(C#N)cc4)c3)o2)cc1` [Example 42, 2-chloro-N-[(2S)-1-(4-cyanophenyl)propan-2-yl]-5-[5-({[(1R)-1-(4-methylphenyl)ethyl]amino}methyl)-2-furyl]benzamide]: the GI50 was above 30 µM in the experiment on NCl-H526 lung cancer and 11.9 µM in the experiment on MCF7 breast cancer cells. In experiment [1], the IC50 was determined as 1.1 µM.
Consider `Cc1ccc([C@@H](C)NCc2ccc(-c3ccc(Cl)c(C(=O)N[C@@H](CCN4CC5(CN(C)C5)C4)Cc4ccc(C#N)cc4)c3)o2)cc1` [Example 36, 2-chloro-N-[(2R)-1-(4-cyanophenyl)-4-(6-methyl-2,6-diazaspiro[3.3]hept-2-yl)butan-2-yl]-5-[5-({[(1R)-1-(4-methylphenyl)ethyl]amino}methyl)-2-furyl]benzamide], for which the GI50 was determined as 1.29 µM with NCl-H526 lung cancer and 1.28 µM in the experiment on MCF7 breast cancer cells. Also, the IC50 in experiment [1] stood at 0.186 µM.
For the compound `Cc1ccc([C@@H](C)NCc2ccc(-c3cc(C(=O)N[C@@H](CO)Cc4ccc(C#N)cc4)c(Cl)cc3O)o2)cc1` [Example 90, 2-chloro-N-[(2R)-1-(4-cyanophenyl)-3-hydroxypropan-2-yl]-4-hydroxy-5-[5-({[(1R)-1-(4-methylphenyl)ethyl]amino}methyl)-2-furyl]benzamide], the GI50 in the experiment with NCl-H526 lung cancer turned out to be 19.1 µM; in the experiment with MCF7 breast cancer cells, 10.8 µM. Also, the IC50 in experiment [1] was 0.367 µM.
The corresponding values for `Cc1ccc([C@@H](C)NCc2ccc(-c3ccc(Cl)c(C(=O)N[C@@H](CCNCC4CCN(C)CC4)Cc4ccc(C#N)cc4)c3)o2)cc1` [Example 33, 2-chloro-N-[(2R)-1-(4-cyanophenyl)-4-{[(1-methylpiperidin-4-yl)methyl]amino}butan-2-yl]-5-[5-({[(1R)-1-(4-methylphenyl)ethyl]amino}methyl)-2-furyl]benzamide] are 1.25 µM, 1.42 µM and 0.184 µM.
Regarding `COC[C@@H](Cc1ccc(C#N)cc1)NC(=O)c1cc(-c2ccc(CN[C@H](C)c3ccc(C)cc3)o2)ccc1Cl` [Example 14, 2-chloro-N-[(2R)-1-(4-cyanophenyl)-3-methoxypropan-2-yl]-5-[5-({[(1R)-1-(4-methylphenyl)ethyl]amino}methyl)-2-furyl]benzamide], in experiment [1], the IC50 is 0.891 µM.
On the same count and under the same terms, in the case of `Cc1ccc([C@@H](C)NCc2ccc(-c3ccc(Cl)c(C(=O)N[C@H](Cc4ccc(C#N)cc4)[C@@H](O)CC(C)C)c3)o2)cc1` [Example 46, 2-chloro-N-[(2R,3S)-1-(4-cyanophenyl)-3-hydroxy-5-methylhexan-2-yl]-5-[5-({[(1R)-1-(4-methylphenyl)ethyl]amino}methyl)-2-furyl]benzamide] it was 1.1 µM; in that of `Cc1ccc([C@@H](C)NCc2ccc(-c3ccc(Cl)c(C(=O)N[C@@H](CNC4CCN(CC(C)C)CC4)Cc4ccc(C#N)cc4)c3)o2)cc1` [Example 63], 0.32 µM.
As for `Cc1ccc([C@@H](C)NCc2ccc(-c3ccc(Cl)c(C(=O)N[C@@H](CO)Cc4ccc(I)cc4)c3)o2)cc1` [Example 18, 2-chloro-N-[(2R)-1-hydroxy-3-(4-iodophenyl)propan-2-yl]-5-[5-({[(1R)-1-(4-methylphenyl)ethyl]amino}methyl)-2-furyl]benzamide], in experiment [1], the IC50 amounted to 1.13 µM.
Same read-out and setting: in the case of `Cc1ccc([C@@H](C)NCc2ccc(-c3ccc(Cl)c(C(=O)N[C@@H](CCN4CCN(C)CC4)Cc4ccc(C#N)cc4)c3)o2)cc1` [Example 25, 2-chloro-N-[(2R)-1-(4-cyanophenyl)-4-(4-methylpiperazin-1-yl)butan-2-yl]-5-[5-({[(1R)-1-(4-methylphenyl)ethyl]amino}methyl)-2-furyl]benzamide] it was 0.352 µM.
Same read-out and setting: in the case of `Cc1ccc([C@@H](C)NCc2ccc(-c3ccc(Cl)c(C(=O)N[C@@H](CCN4CCN(C)C[C@H]4C)Cc4ccc(C#N)cc4)c3)o2)cc1` [Example 32, 2-chloro-N-{(2R)-1-(4-cyanophenyl)-4-[(2R)-2,4-dimethylpiperazin-1-yl]butan-2-yl}-5-[5-({[(1R)-1-(4-methylphenyl)ethyl]amino}methyl)-2-furyl]benzamide] it was 0.13 µM; in that of `Cc1ccc([C@@H](C)NCc2ccc(-c3ccc(Cl)c(C(=O)N[C@H](Cc4ccc(C#N)cc4)C(C)(C)O)c3)o2)cc1` [Example 12, 2-chloro-N-[(2R)-1-(4-cyanophenyl)-3-hydroxy-3-methylbutan-2-yl]-5-[5-({[(1R)-1-(4-methylphenyl)ethyl]amino}methyl)-2-furyl]benzamide], 0.668 µM; in that of `Cc1ccc([C@@H](C)NCc2ccc(-c3ccc(Cl)c(C(=O)N[C@@H](CC(=O)N4CCOCC4)Cc4ccc(C#N)cc4)c3)o2)cc1` [Example 10, 2-chloro-N-[(2R)-1-(4-cyanophenyl)-4-(morpholin-4-yl)-4-oxobutan-2-yl]-5-[5-({[(1R)-1-(4-methylphenyl)ethyl]amino}methyl)-2-furyl]benzamide], 0.674 µM.
On the same count and under the same terms, in the case of `COC(=O)[C@@H](Cc1ccc(C#N)cc1)NC(=O)c1cc(-c2ccc(CN[C@H](C)c3ccc(C)cc3)o2)ccc1Cl` [Example 15, methyl N-{2-chloro-5-[5-({[(1R)-1-(4-methylphenyl)ethyl]amino}methyl)-2-furyl]benzoyl}-4-cyano-D-phenylalaninate] it was 0.812 µM; in that of `Cc1ccc([C@@H](C)NCc2ccc(-c3ccc(Cl)c(C(=O)N[C@@H](CNC(=O)C4CCNCC4)Cc4ccc(C#N)cc4)c3)o2)cc1` [Example 56, N-[(2R)-2-({2-chloro-5-[5-({[(1R)-1-(4-methylphenyl)ethyl]amino}methyl)-2-furyl]benzoyl}amino)-3-(4-cyanophenyl)propyl]piperidine-4-carboxamide], 0.51 µM.
As to `Cc1ccc([C@@H](C)NCc2ccc(-c3ccc(Cl)c(C(=O)N[C@@H](CNC4CCNC(C)(C)C4)Cc4ccc(C#N)cc4)c3)o2)cc1` (mixture of isomers) [Example 68], the IC50 in experiment [1] came to 0.109 µM.
On to `Cc1ccc([C@@H](C)NCc2ccc(-c3ccc(Cl)c(C(=O)N[C@@H](CCN4CCN[C@H](C)C4)Cc4ccc(C#N)cc4)c3)o2)cc1` [Example 27, 2-chloro-N-{(2R)-1-(4-cyanophenyl)-4-[(3R)-3-methylpiperazin-1-yl]butan-2-yl}-5-[5-({[(1R)-1-(4-methylphenyl)ethyl]amino}methyl)-2-furyl]benzamide], for which, in experiment [1], the IC50 was determined as 0.116 µM.
Still for that read-out and setting: the value for `COC(=O)C[C@@H](Cc1ccc(C#N)cc1)NC(=O)c1cc(-c2ccc(CN[C@H](C)c3ccc(C)cc3)o2)ccc1Cl` [Example 50, methyl (3R)-3-({2-chloro-5-[5-({[(1R)-1-(4-methylphenyl)ethyl]amino}methyl)-2-furyl]benzoyl}amino)-4-(4-cyanophenyl)butanoate] was 1.26 µM; that for `Cc1ccc([C@@H](C)NCc2ccc(-c3ccc(Cl)c(C(=O)N[C@@H](CNC4CCN(C)CC4)Cc4ccc(C#N)cc4)c3)o2)cc1` [Example 58, 2-chloro-N-{(2R)-1-(4-cyanophenyl)-3-[(1-methylpiperidin-4-yl)amino]propan-2-yl}-5-[5-({[(1R)-1-(4-methylphenyl)ethyl]amino}methyl)-2-furyl]benzamide] was 0.172 µM; that for `Cc1ccc([C@@H](C)NCc2ccc(-c3ccc(Cl)c(C(=O)N[C@@H](CNCC(C)C)Cc4ccc(C#N)cc4)c3)o2)cc1` [Example 61] was 0.798 µM.
The same measure, in the same setting: the value for `Cc1ccc([C@@H](C)NCc2ccc(-c3ccc(Cl)c(C(=O)N[C@@H](CNC4CCNCC4)Cc4ccc(C#N)cc4)c3)o2)cc1` [Example 67] was 0.265 µM; that for `Cc1ccc([C@@H](C)NCc2ccc(-c3ccc(Cl)c(C(=O)N[C@@H](CCO)Cc4ccc(C#N)cc4)c3)o2)cc1` [Example 13, 2-chloro-N-[(2R)-1-(4-cyanophenyl)-4-hydroxybutan-2-yl]-5-[5-({[(1R)-1-(4-methylphenyl)ethyl]amino}methyl)-2-furyl]benzamide] was 0.386 µM.
The same measure, in the same setting: the value for `CNC(=O)[C@@H](Cc1ccc(C#N)cc1)NC(=O)c1cc(-c2ccc(CN[C@H](C)c3ccc(C)cc3)o2)ccc1Cl` [Example 5, Nα-{2-chloro-5-[5-({[(1R)-1-(4-methylphenyl)ethyl]amino}methyl)furan-2-yl]benzoyl}-4-cyano-N-methyl-D-phenylalaninamide] was 1.89 µM; that for `Cc1ccc([C@@H](C)NCc2ccc(-c3ccc(Cl)c(C(=O)N[C@H](Cc4ccc(C#N)cc4)CN(C)C)c3)o2)cc1` [Example 24, 2-chloro-N-[(2R)-1-(4-cyanophenyl)-3-(dimethylamino)propan-2-yl]-5-[5-({[(1R)-1-(4-methylphenyl)ethyl]amino}methyl)-2-furyl]benzamide] was 0.598 µM.
